Assay results published in ChEMBL document CHEMBL3885881, “DrugMatrix”.

Species: Rattus norvegicus
Assay: DrugMatrix - Regimen: Daily Repeat
Type: toxicity, organism-based, Sprague-Dawley
Set-up: regimen Daily Repeat, gender Male, age 6-8 weeks
Conditions: in vivo, po, route oral GAVAGE, vehicle .5 % CMC; for ABSOLUTE BASOPHIL / ABSOLUTE EOSINOPHIL / ABSOLUTE LYMPHOCYTE / ABSOLUTE MONOCYTE / ABSOLUTE SEGMENTED NEUTROPHIL / BASOPHIL / EOSINOPHIL / ERYTHROCYTE COUNT / HEMATOCRIT / HEMOGLOBIN / LEUKOCYTE COUNT / LYMPHOCYTE / MEAN CORPUSCULAR HEMOGLOBIN / MEAN CORPUSCULAR HEMOGLOBIN CONCENTRATION / MEAN CORPUSCULAR VOLUME / MONOCYTE / NEUTROPHIL / NUCLEATED RED BLOOD CELLS / PLATELET COUNT: tissue Blood; for ALANINE AMINOTRANSFERASE / ALBUMIN / ALKALINE PHOSPHATASE / ASPARTATE AMINOTRANSFERASE / BLOOD UREA NITROGEN / CARBON DIOXIDE / CHLORIDE / CHOLESTEROL / CREATINE PHOSPHOKINASE / CREATININE / GLUCOSE / LACTATE DEHYDROGENASE / LIPASE / PHOSPHORUS / POTASSIUM / SODIUM / TOTAL BILIRUBIN / TOTAL PROTEIN / URIC ACID: tissue Plasma
[1] = 0 mg/kg, 72 h, dose level Control, time 3 day
[2] = 0 mg/kg, 120 h, dose level Control, time 5 day
[3] = 2500 mg/kg, 72 h, dose level High, time 3 day

CN1CCC[C@@H]1CCO[C@](C)(c1ccccc1)c1ccc(Cl)cc1 [CLEMASTINE]
ABSOLUTE BASOPHIL [1]: 0 CELLS/uL
ABSOLUTE EOSINOPHIL [1]: 0 CELLS/uL
ABSOLUTE LYMPHOCYTE [1]: 12191.17 CELLS/uL
ABSOLUTE MONOCYTE [1]: 183.17 CELLS/uL
ABSOLUTE SEGMENTED NEUTROPHIL [1]: 1192.33 CELLS/uL
BASOPHIL [1]: 0%
EOSINOPHIL [1]: 0%
ERYTHROCYTE COUNT [1]: 5.51 x10E6/uL
HEMATOCRIT [1]: 35.45%
HEMOGLOBIN [1]: 13.82 G/DL
LEUKOCYTE COUNT [1]: 13.57 x10E3/uL
LYMPHOCYTE [1]: 89.83%
MEAN CORPUSCULAR HEMOGLOBIN [1]: 25.1 pg
MEAN CORPUSCULAR HEMOGLOBIN CONCENTRATION [1]: 38.98 G/DL
MEAN CORPUSCULAR VOLUME [1]: 64.42 fL
MONOCYTE [1]: 1.33%
NEUTROPHIL [1]: 8.83%
NUCLEATED RED BLOOD CELLS [1]: 0 /100WBC
PLATELET COUNT [1]: 1118.17 x10E3/uL
ALANINE AMINOTRANSFERASE [1]: 55 u/L
ALBUMIN [1]: 4.15 G/DL
ALKALINE PHOSPHATASE [1]: 449.5 u/L
ASPARTATE AMINOTRANSFERASE [1]: 112.83 u/L
BLOOD UREA NITROGEN [1]: 17.33 mg/dL
CARBON DIOXIDE [1]: 29.5 mmol/L
CHLORIDE [1]: 101 MEQ/L
CHOLESTEROL [1]: 70 mg/dL
CREATINE PHOSPHOKINASE [1]: 1325.83 u/L
CREATININE [1]: 0.18 mg/dL
GLUCOSE [1]: 171.5 mg/dL
LACTATE DEHYDROGENASE [1]: 386 u/L
LIPASE [1]: 10 u/L
PHOSPHORUS [1]: 11.57 mg/dL
POTASSIUM [1]: 6.21 MEQ/L
SODIUM [1]: 141.65 MEQ/L
TOTAL BILIRUBIN [1]: 0.15 mg/dL
TOTAL PROTEIN [1]: 5.75 G/DL
URIC ACID [1]: 1.28 mg/dL
ABSOLUTE BASOPHIL [2]: 0 CELLS/uL
ABSOLUTE EOSINOPHIL [2]: 138.17 CELLS/uL
ABSOLUTE LYMPHOCYTE [2]: 13283.17 CELLS/uL
ABSOLUTE MONOCYTE [2]: 303.83 CELLS/uL
ABSOLUTE SEGMENTED NEUTROPHIL [2]: 1308.17 CELLS/uL
BASOPHIL [2]: 0%
EOSINOPHIL [2]: 1%
ERYTHROCYTE COUNT [2]: 5.32 x10E6/uL
HEMATOCRIT [2]: 33.8%
HEMOGLOBIN [2]: 13.63 G/DL
LEUKOCYTE COUNT [2]: 15.03 x10E3/uL
LYMPHOCYTE [2]: 88.33%
MEAN CORPUSCULAR HEMOGLOBIN [2]: 25.68 pg
MEAN CORPUSCULAR HEMOGLOBIN CONCENTRATION [2]: 40.35 G/DL
MEAN CORPUSCULAR VOLUME [2]: 63.67 fL
MONOCYTE [2]: 1.83%
NEUTROPHIL [2]: 8.83%
NUCLEATED RED BLOOD CELLS [2]: 0 /100WBC
PLATELET COUNT [2]: 1097.5 x10E3/uL
ALANINE AMINOTRANSFERASE [2]: 54.5 u/L
ALBUMIN [2]: 4.27 G/DL
ALKALINE PHOSPHATASE [2]: 337 u/L
ASPARTATE AMINOTRANSFERASE [2]: 94.67 u/L
BLOOD UREA NITROGEN [2]: 17 mg/dL
CARBON DIOXIDE [2]: 28.33 mmol/L
CHLORIDE [2]: 101.5 MEQ/L
CHOLESTEROL [2]: 71.33 mg/dL
CREATINE PHOSPHOKINASE [2]: 628.17 u/L
CREATININE [2]: 0.19 mg/dL
GLUCOSE [2]: 177.83 mg/dL
LACTATE DEHYDROGENASE [2]: 500.5 u/L
LIPASE [2]: 9.5 u/L
PHOSPHORUS [2]: 12.3 mg/dL
POTASSIUM [2]: 5.63 MEQ/L
SODIUM [2]: 143.03 MEQ/L
TOTAL BILIRUBIN [2]: 0.2 mg/dL
TOTAL PROTEIN [2]: 6.02 G/DL
URIC ACID [2]: 1.5 mg/dL
ABSOLUTE BASOPHIL [3]: 0 CELLS/uL
ABSOLUTE EOSINOPHIL [3]: 0 CELLS/uL
ABSOLUTE LYMPHOCYTE [3]: 7950 CELLS/uL
ABSOLUTE MONOCYTE [3]: 225 CELLS/uL
ABSOLUTE SEGMENTED NEUTROPHIL [3]: 1825 CELLS/uL
BASOPHIL [3]: 0%
EOSINOPHIL [3]: 0%
ERYTHROCYTE COUNT [3]: 6.97 x10E6/uL
HEMATOCRIT [3]: 42.9%
HEMOGLOBIN [3]: 16.67 G/DL
LEUKOCYTE COUNT [3]: 10 x10E3/uL
LYMPHOCYTE [3]: 77%
MEAN CORPUSCULAR HEMOGLOBIN [3]: 23.97 pg
MEAN CORPUSCULAR HEMOGLOBIN CONCENTRATION [3]: 38.87 G/DL
MEAN CORPUSCULAR VOLUME [3]: 61.6 fL
MONOCYTE [3]: 2.33%
NEUTROPHIL [3]: 20.67%
NUCLEATED RED BLOOD CELLS [3]: 0 /100WBC
PLATELET COUNT [3]: 1501 x10E3/uL
ALANINE AMINOTRANSFERASE [3]: 133 u/L
ALBUMIN [3]: 4.1 G/DL
ALKALINE PHOSPHATASE [3]: 344 u/L
ASPARTATE AMINOTRANSFERASE [3]: 444 u/L
BLOOD UREA NITROGEN [3]: 70.67 mg/dL
CARBON DIOXIDE [3]: 23 mmol/L
CHLORIDE [3]: 102.5 MEQ/L
CHOLESTEROL [3]: 44.33 mg/dL
CREATINE PHOSPHOKINASE [3]: 1897.33 u/L
CREATININE [3]: 0.69 mg/dL
GLUCOSE [3]: 201 mg/dL
LACTATE DEHYDROGENASE [3]: 1757 u/L
LIPASE [3]: 14.33 u/L
PHOSPHORUS [3]: 18 mg/dL
POTASSIUM [3]: 6.26 MEQ/L
SODIUM [3]: 145.75 MEQ/L
TOTAL BILIRUBIN [3]: 0.73 mg/dL
TOTAL PROTEIN [3]: 5.93 G/DL
URIC ACID [3]: 2.83 mg/dL
